Source: patent US11497765B1, “Thioctamer expedites wound healing” (King Abdulaziz University, priority 2022, dated 2022)

Assays:
[1] = tested on: wound on rat skin; details: seventh day after surgery; topical; negative control 43.0±17.4%; cited from earlier work
[2] = Thioctamer zeta potential and particle size evaluation (Zetasizer Nano ZSP); format: physicochemical
Protocol: Thioctamer was prepared by conjugation of GA and TA in a 1:1 molar ratio. TA was solvated in deionized water (with added of triethanolamine in a 1:1 molar ratio with the amount of TA). GA was dissolved separately in deionized water. The two aqueous solutions were mixed and then vortexed for 60 sec. The prepared thioctamer was assessed for zeta potential and particle size utilizing a Zetasizer Nano ZSP (Malvern Instruments Ltd., Malvern, UK).

[3] = tested on: IL-6; test: Immunohistochemical assessment of IL-6 expression in wounded skin; format: in vivo, male Wistar rats; details: wounded skin of diabetic rats; negative control 0.42±0.044; mean±SD, n=6
Protocol: (§1) Rats were anesthetized by xylazine and ketamine (10 mg/kg and 100 mg/kg, respectively IP injection). The dorsal surface was shaved, the skin was sterilized by povidone-iodine solution, and an excision circle (1 cm diameter) was made on dorsal surface. After the excision, the wounds were cleaned and dried using sterile saline solution and sterile pads, respectively. Subcutaneous injection of 2% solution of lidocaine hydrochloride having 1:80,000 epinephrine (4.4 mg/kg) was performed near the wound area to reduce pain. […] All treatments were topically applied daily for a total of 10 days. The wounds were wrapped with sterile gauze dressings and changed daily. At days 0, 4, 7, and 10, wounds were photographed and assessed. Animals were sacrificed by beheading at the end of day 10 and the skin of wound area was cut out. […]

[4] = tested on: wound tissues of diabetic rats; test: Histological investigation of wound tissue (H&E, Masson's trichrome); format: in vivo, male Wistar rats; details: for Ang = Angio-genesis / CD = Collagen deposition / FP = Fibroblast proliferation / GT = Granulation tissue / IC = Inflammatory cell infiltration / RE = Re-epithelization: day 10 wound healing, topical application, diabetic rats; for healing rate by histology (in words): wound tissues collected on day 10, H&E or Masson's trichrome
Protocol: Thirty 210-240 g male Wistar rats were provided by KAU's animal facility and were maintained on a 12-hr dark-light cycle at a temperature of 22 ±2° C. […] Induction of diabetes in rats was carried out as formerly described, i.e. prior to the study, rats were intra-peritoneally injected with streptozotocin (50 mg/kg) for two weeks. Go Accu-Chek was utilized for assessing the level of fasting blood glucose (Roche, Mannheim, Germany) Moderate-diabetic rats with level of fasting blood glucose (200-300 mg/100 mL) were chosen for the experiment.
Rats were anesthetized by xylazine and ketamine (10 mg/kg and 100 mg/kg, respectively IP injection). The dorsal surface was shaved, the skin was sterilized by povidone-iodine solution, and an excision circle (1 cm diameter) was made on dorsal surface. After the excision, the wounds were cleaned and dried using sterile saline solution and sterile pads, respectively. Subcutaneous injection of 2% solution of lidocaine hydrochloride having 1:80,000 epinephrine (4.4 mg/kg) was performed near the wound area to reduce pain. […] All treatments were topically applied daily for a total of 10 days. The wounds were wrapped with sterile gauze dressings and changed daily. At days 0, 4, 7, and 10, wounds were photographed and assessed. Animals were sacrificed by beheading at the end of day 10 and the skin of wound area was cut out. From each animal, a part of the obtained skin was retained in 10% neutral formalin, while the other part was preserved at -80° C. for further analyses.
Wound tissues were preserved for 24 h in 10% neutral formalin, then dehydrated using serial concentrations of ethanol, passed through xylene as a clearing agent, and inserted in paraffin. Tissues' paraffin blocks were cut into 5 μm thickness that were rehydrated after dewaxing. Some sections were stained using E&H (eosin and hematoxylin), whereas the remaining were stained with MT (Masson's trichrome). Histological investigation was carried out by a pathologist without prior knowledge of the groups'treatment. On the basis of the abundance/degree of inflammatory cell infiltration, proliferation of fibroblasts, deposition of collagen, angiogenesis, tissue granulation, and re-epithelization, scores were assigned in a range from - to +++.

[5] = tested on: TNF-α; test: Immunohistochemical assessment of TNF-α expression in wounded skin; format: in vivo, male Wistar rats; details: wounded skin of diabetic rats; negative control 0.47±0.048; mean±SD, n=6
Protocol: as §1

[6] = tested on: wounds in diabetic rats; details: cited from earlier work
[7] = tested on: excision wound on dorsal surface of diabetic rats; test: Wound closure in wounded diabetic rats, topical hydrogel treatment; format: in vivo, male Wistar rats; details: day 7, topical daily, 1.5% w/v HPMC hydrogel (TA 4.1, GA 12.5, thioctamer 16.6 mg/g gel), mean±SD, n=6
Protocol: Rats were anesthetized by xylazine and ketamine (10 mg/kg and 100 mg/kg, respectively IP injection). The dorsal surface was shaved, the skin was sterilized by povidone-iodine solution, and an excision circle (1 cm diameter) was made on dorsal surface. After the excision, the wounds were cleaned and dried using sterile saline solution and sterile pads, respectively. Subcutaneous injection of 2% solution of lidocaine hydrochloride having 1:80,000 epinephrine (4.4 mg/kg) was performed near the wound area to reduce pain. […] At days 0, 4, 7, and 10, wounds were photographed and assessed. […]

## O=C(O)CCCCC1CCSS1 (centres unmarked) [TA, thioctic acid]
[1]
  healing rate: 60.7±8.4%
[2]
  zeta potential: -26.6±5.39 mV
[3]
  IL-6 expression (immunohistochemistry, image analysis): 0.324±0.043
[4]
  Ang = Angio-genesis: +
  CD = Collagen deposition: ++
  FP = Fibroblast proliferation: ++
  GT = Granulation tissue: ++
  IC = Inflammatory cell infiltration: +++
  RE = Re-epithelization: ++
  healing rate by histology (in words): moderate healing rate
[5]
  TNF-α expression (immunohistochemistry, image analysis): 0.374±0.039
[6]
  time to complete wound closure: 8 days
[7]
  % wound contraction (healing): 56.5±5.8%

## L-alanine compound with L-tyrosine compound with L-lysine compound with L-glutamic acid acetic acid [GA]
[3]
  IL-6 expression (immunohistochemistry, image analysis): 0.318±0.033
[4]
  Ang = Angio-genesis: +
  CD = Collagen deposition: ++
  FP = Fibroblast proliferation: ++
  GT = Granulation tissue: ++
  IC = Inflammatory cell infiltration: +++
  RE = Re-epithelization: ++
  healing rate by histology (in words): moderate healing rate
[5]
  TNF-α expression (immunohistochemistry, image analysis): 0.34±0.05
[7]
  % wound contraction (healing): 62.6±7.1%
